From article PMC4850106 (Journal of medicinal chemistry, 2016)
pKi: −log10 of the molar value.

Columns and labels:
[1] = molecular target: human NOP (Homo sapiens, UniProt P41146); conditions: read-out: Ki for the human NOP; cited from earlier work
[2] = tested on: mice (C57BL6); conditions: acute pain, increased dosing ref 73; cited from earlier work
[3] = tested on: neuropathic mice; conditions: neuropathic conditions ref 73; cited from earlier work
[4] = tested on: Sprague–Dawley rats; test: Respiratory effects by whole body plethysmography in rats; format: in vivo; conditions: iv, 13a 0.5 mg/kg, morphine 5 mg/kg
[5] = BBB-PAMPA assay; format: in vitro ADME, porcine; conditions: 500 µM in donor, 4 h
[6] = tested on: brain-like endothelial cells cocultured with pericytes; test: In vitro human BBB cell-based model; format: in vitro ADME; conditions: cell-based BBB model, 200 µM, 2 h
[7] = In vitro human BBB cell-based model; format: in vitro ADME; conditions: human

human NOP, sequence (P41146 whole entry): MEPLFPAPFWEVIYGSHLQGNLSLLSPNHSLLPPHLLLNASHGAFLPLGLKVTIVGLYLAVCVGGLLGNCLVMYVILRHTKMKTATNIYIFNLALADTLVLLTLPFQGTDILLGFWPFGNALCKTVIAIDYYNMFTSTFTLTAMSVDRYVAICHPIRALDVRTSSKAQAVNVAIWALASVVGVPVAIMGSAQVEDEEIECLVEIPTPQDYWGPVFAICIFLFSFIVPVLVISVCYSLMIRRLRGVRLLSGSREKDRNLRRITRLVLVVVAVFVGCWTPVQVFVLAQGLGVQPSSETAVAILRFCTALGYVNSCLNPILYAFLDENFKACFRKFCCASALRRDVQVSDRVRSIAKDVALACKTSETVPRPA

In the case of “Ac-Arg-Tyr-Tyr-Arg-Trp-Arg-NH2 (Ac-RYYRWR-NH2)”, the pKi [1] is given as 10.00.

For `CN1CC[C@]23c4c5ccc(O)c4O[C@H]2[C@@H](O)C=C[C@H]3[C@H]1C5` [morphine], the “%MPE in tail-flick test upon increased dosing” value [2] is given as 100 %MPE, the “sustained %MPE no matter how high the dose” value [3] is given as “about 50 %MPE” and the inspiratory time [4] is given as “significant increase in inspiratory time”. The respiratory frequency [4] was “decrease in respiratory frequency” and the “respiratory depression (ventilation minute)” value ([4]; vs saline, AUC) was “deleterious effect”.

For `CC[C@H](C)[C@H](NC(=O)[C@H](CCCN=C(N)N)NC(=O)[C@H](Cc1ccc(O)cc1)NC(=O)[C@H](Cc1ccc(O)cc1)NC(=O)[C@H](CCCN=C(N)N)NC(C)=O)C(=O)N[C@@H](CCCCN)C(N)=O` [compound 8, Ac-Arg-Tyr-Tyr-Arg-Ile-Lys-NH2], the “transport (%)” value [5] was 0.15%, the “mass balance (%)” value [6] was 95% and the “transport (%)” value [6] was 14%. For the same compound, the Papp A→B at 2 h, 200 µM [7] was 8.4 ×10⁻⁶ cm/s.
